Measurements taken from US11767316B2, “Non-fused thiophene derivatives and their uses” (ENYO PHARMA, priority 2018, dated 2023).

What was measured:
UXF 1138 = assay: Cytotoxicity, propidium iodide based monolayer assay, UXF 1138; format: cell-based; conditions: 96 h; UXF 1138 (uterine sarcoma), four days of treatment, T/C=50%; read-out: Absolute IC50
Procedure: (§1) The cytotoxicity was tested for compounds of the invention on five different cell-lines, namely LXFL 1121, MAXF 401, MMXF L-636, PRXF PC-3M and UXF 1138 which are respectively lung large cell carcinoma, breast adeno carcinoma, multiple myeloma, prostate adeno carcinoma and uterine sarcoma.
(§2) A working stock solution of the test compounds was prepared in DMSO at a concentration of 33 mM or 8.25 mM, and small aliquots were stored at −20° C. On each day of an experiment, a frozen aliquot of the working stock solution was thawed and stored at room temperature prior to and during treatment.
(§3) All liquid handling steps were performed using the Tecan Freedom EVO 200 platform. First, serial 2-fold dilutions of the 33 mM DMSO working stock solution were done in DMSO. […]
(§4) A modified propidium iodide (PI) based monolayer assay was used to assess the anti-cancer activity of the compounds. Briefly, cells were harvested from exponential phase cultures, counted and plated in 96 well flat-bottom microtiter plates at a cell density of 4,000 to 40,000 cells/well dependent on the cell line's growth rate. […] After an incubation period of 1-2 hours at room temperature, fluorescence (FU) was measured using the Enspire Multimode Plate Reader (excitation λ=530 nm, emission λ=620 nm) to quantify the amount of attached viable cells. […]

NFκB = NFκB reporter assay (NanoLuciferase) in A549 cells, TNFα stimulation; format: cell-based; conditions: Homo sapiens, 4 ng/ml TNFα, 6 hours
Excerpt: Compounds of the present invention have been tested for their capacity to inhibit NFκB.
The NFκB reporter construct was made by cloning 5 NFκB responsive elements upstream of a NanoLuciferase reporter gene flanked by AAVS1 genomic sequences.
NFκB Responsive element fused with NanoLuciferase and SV40 late Poly(A) signal was amplified from pNL3.2-NFκB-Nluc (Promega) using NFKB-NLUC-F and NFKB-NLUC-R primers and inserted by Infusion (TaKaRa) in AAVS1 SA-2A-puro-pA donor plasmid (Hockemeyer et al, Nat Biotechnol. 2009, 27, 851-7) digested by Sal1. pCRISPR AAVS1-T2 expressing a guide RNA (gRNA) to target human AAVS1 (T2 target sequence) was constructed by inserting AAVS1-T2A hybridized primers in pLentiCRISPR v2-blast (Sanjana et al, Nat Methods. 2014, 11, 783-4) digested by Bsmb1.
A549 cells were transfected by the plasmids and puromycine selected for 5 days (1 μg mL-1). Then clones were obtained by limiting dilution and selected to maximize TNFα dependent NFkB-NanoLuciferase induction.
The reporter cells were seeded on a 96-well plate for overnight with DMEM including 10% FBS. Test compounds were added at varying concentrations. The cells then were treated with 4 ng/ml TNFα (Peprotech, ref E251) in DMEM+10% FBS. NanoGlo luciferase assay (Promega) was carried out 6 hours later. Luminescence was measured using a Spark 20M spectrofluorimeter (Tecan). Values were normalized to the luminescence measured in untreated cells.

PRXF PC-3M = assay: Cytotoxicity, propidium iodide based monolayer assay, PRXF PC-3M; format: cell-based; conditions: Homo sapiens, 96 h; PRXF PC-3M (prostate adeno carcinoma), four days of treatment, T/C=50%; read-out: Absolute IC50
Procedure: as §1, §2, §3, §4

diabetic mice model = assay: HbA1c in diabetic mice model (db/db); format: in vivo; conditions: PO 7 or 20 mg/kg BID or 40 mg/kg QD, 28 days of dosing, FIG. 1
Procedure: Compound #16 has been tested on a diabetic mice model. […] Therefore, this compound can be useful for treating diabetes.
Male db/db (BKS.Cg-m 1/1 Leprdb/J) mice aged 6 weeks at the time of arrival were obtained from Janvier (France) and acclimatized to their new environment. Animals were housed in groups of 2 in a light, temperature and humidity-controlled room (a 12-hour light/dark cycle, with lights off at 4 PM; 23+/−1° C.; 50% relative humidity). All animals had free access to standard Purina 5008 chow (LabDiet) and domestic-quality tap water.
The study was initiated in mice aged 8 weeks. Three days before first dosing, a blood sample was collected for determination of baseline blood glucose and hemoglobin A1c (HbA1c) levels. Based on these baseline HbA1c and fed blood glucose levels, mice were stratified into treatment groups (n=10) receiving vehicle (CMC (1.5% W/V) Sigma (ref.C9481), Tween 80 (0.25% V/V) Sigma (ref.59924) in water) or orally administered Compound #16 as follows: • 7 mg/kg, PO BID (twice a day) • 20 mg/kg, PO BID (twice a day) • 40 mg/kg PO QD (Once a day)
Throughout the experimental period, body weight and food and water intake were measured daily in the morning.
Animals were terminated after a total of 28 days of dosing. […]

O=C(Nc1scc(C2CCc3ccccc3C2)c1C(=O)O)c1ccccc1 (stereo not shown) [#16]
IC50 (UXF 1138): 0.324 µM | EC50 (NFκB): 0.08 µM | IC50 (PRXF PC-3M): 0.485 µM | Change of glycated hemoglobin, HbA1C (diabetic mice model): capable of reducing glycated hemoglobin
